Test results published in a melting point compilation (Tetko et al.; mined from patent text by program, amines drawn as free bases though some values may be those of a salt).

melting point	Compound
179 to 180 °C	Cc1c(Cc2ccc(C(C)C)cc2)c2c(c(C)c1NC(=O)CC(C)(C)C)CC(C)O2 (centres undefined)
88 to 90 °C	COc1ccc(N(C)c2nccc(-c3cccnc3)n2)cc1
205 °C	CCCC(=O)Nc1n[nH]c2cc(-c3cccnc3)ccc12
138 to 140 °C	COc1cc(-c2cc(C(F)(F)F)nn2-c2ccc(S(C)(=O)=O)cc2)ccc1-c1ccco1
146 °C	Cc1ccc2c(c1)C(C(=O)Nc1c(C(C)C)cc(SC#N)cc1C(C)C)c1ccccc1CO2 (centres undefined)
138 to 140 °C	CCC(Oc1cccc2ccccc12)C(=O)OC1CC(O)C=C2C=CC(C)C(CCC3CC(O)CC(=O)O3)C21 (centres undefined)
44 to 46 °C	CCCCCCCCNC(=O)Oc1ccc(Oc2ccccc2)cc1
189 to 191 °C	CCN1C(=O)N(c2cc(OC)cc(OC)c2Cl)Cc2cnc(SC)nc21
188 °C	COc1cc(OCc2ccccn2)ccc1/C=C/C(=O)CC(=O)/C=C/c1cc2ccccc2s1
194 to 195 °C	CS(=O)c1ccc(-n2cnc3ccc(-c4nnc(CCc5cccc(C#N)c5)o4)cc32)cc1 (centres undefined)
185 to 187 °C	CN(C)C(=O)c1nnc(S)o1
155 to 157 °C	O=C(Nc1ccc(-n2nc(C(F)(F)F)cc2C(F)(F)F)cc1)c1ccccc1Cl
234 to 238 °C	Oc1ccc(Sc2cccc(O)n2)cc1
146 to 147 °C	NC(=O)Cc1ccc2[nH]ccc2c1
215 to 218 °C	CC1CC(=O)NN=C1c1ccc2c(c1)N(C)C(=O)CO2 (centres undefined)
199 to 204 °C	COC(=O)c1ccc2[nH]c3cnc(C(=O)OC)c(C)c3c2c1
253 to 254 °C	CCc1[nH]nc2c1C(=O)c1c(NC(=O)NN3CCOCC3)cccc1-2
56 to 60 °C	C=C(Cc1ccccc1)C(=O)N[C@@H](CC(C)C)C(=O)O
115 to 117 °C	CCCCCCN1CCN(Cc2ccc([N+](=O)[O-])cc2)C(=O)C1=O
129 to 131 °C	Cn1ncc(S(=O)Cc2ccccc2)c(Cl)c1=O (centres undefined)
76 to 77 °C	Cc1c(C)c2c(c(C)c1N)CC(C)(CN1CCN(C)CC1)O2 (centres undefined)
130 to 140 °C	Cc1cc(C)nc(-n2c(C(=O)Nc3ccc4c(c3)nc(C)n4C)cc3cc(F)ccc32)c1
229 °C	Cc1ccc(C2Sc3ccccc3NC(=O)C2CO)cc1 (centres undefined)
90 °C	CCCCCOc1ccc2c(c1)C=C(CNC(=O)CCC)CO2

melting point	Compound
54 to 56 °C	CCC(OC(C)C)c1cc(C(=O)OC)c(N)cc1C(F)(F)F (centres undefined)
116 to 118 °C	CCOC(=O)Nc1ccc(OC23CC4CC(CC(C4)C2)C3)cc1
191 to 193 °C	O=C(O)c1ccccc1C(=O)c1ccncc1
91 to 93 °C	COc1cc(N)c(Cl)cc1C(=O)NCC1CCN(CCCCCOc2cccc3ccccc23)CC1
170 to 172 °C	CCCCc1nc(Cl)c(CC(=O)O)n1Cc1ccc(OCc2ccccc2C(=O)O)cc1
170 °C	CC(C)c1ccc(N(Cc2ccc(N(C)C)cc2)C(=O)C2CC(=O)Nc3ccccc32)cc1 (centres undefined)
188 to 190 °C	Cc1ccn(-c2ccc(C(=O)N3Cc4cccnc4N(C)c4ccccc43)c(C(F)(F)F)c2)n1
109 to 110 °C	Clc1ncc(Br)n2nc(SCc3ccccc3)nc12
191 to 193 °C	Cn1c(-c2ccc(F)cc2)cc(=O)c(C(=O)O)c1-c1ccc(F)cc1
82 to 83 °C	CC(=O)OC(C)c1cccc2cc(C(C)=O)oc12 (centres undefined)
245 to 246 °C	O=C(c1ccccc1Cl)c1c(O)nn(-c2c(Cl)cc(Cl)cc2Cl)c1N1C(=O)c2ccccc2C1=O
132 to 133 °C	CCOCc1nc2c(N)nc3cc(CCCN4CCOCC4)ccc3c2n1CC(C)(C)O
312 °C	Cc1cc(-c2ccc(Cl)cc2)nc(-n2cnc(-c3ccc(S(N)(=O)=O)cc3)c2)n1
140 to 142 °C	CCCCCNC(=O)CC(c1ccc(OC)c(OC)c1)N1C(=O)c2ccccc2C1=O (centres undefined)
85 to 87 °C	CC(C)c1cn(C)cc(-c2ccc(Cl)c(C(F)(F)F)c2)c1=O
145 to 150 °C	CCOC(=O)c1ccc(Nc2ccc([N+](=O)[O-])cc2N)cc1
158 °C	COc1ccc(N(CC(=O)OC(C)(C)C)C(=O)CNC(=O)Nc2cccc(C)c2)cc1
151 to 153 °C	Cc1cccc2c1nc(C(C)C)n2Cc1c(F)cccc1F
86 to 87 °C	CCCc1c(OCCCOc2ccc(C(=O)OCC)cc2)ccc(C(C)=O)c1O
77 to 79 °C	CC(C)COc1cc(O)c2c(c1)OC(C)(C)CC2=O
134 °C	O=C(C1CCCCC1)N1CC(=O)N(CCc2ccccc2)C(O)C1 (centres undefined)
85 to 86 °C	O=C(c1c(F)cccc1F)N1COCN(c2ccc(SC(F)(C(F)(F)F)C(F)(F)F)cc2F)C1=O
222 to 224 °C	Clc1nc(NCc2cccc(I)c2)c2[nH]cnc2n1
101 to 102 °C	C=CC(=O)[C@@H]1CCCC[C@H]1C(=O)O (relative stereo)

melting point	Compound
193 to 195 °C	CC1Cc2cc3c(cc2C(c2ccc([N+](=O)[O-])cc2)=NN1C(=O)Cc1ccccc1)OCO3 (centres undefined)
119 to 120 °C	CCc1nc(-c2ccco2)c2ncn(Cc3ccc(OC)cc3)c2n1
222 °C	CCn1cc(C(=O)O)c(=O)c2cnc(N3CCN(CCO)CC3)nc21
96 to 97 °C	CCC(=O)c1ccc2c(c1)C(C(Cl)(Cl)Cl)OC(C(Cl)(Cl)Cl)O2 (centres undefined)
176 to 177 °C	COc1cc2c(cc1O)CCN(C(=O)c1ccccc1OC)C2
97 to 99 °C	CC1(C)CC(O)CC(C)(C)N1CC(O)CO (centres undefined)
194 to 196 °C	COc1ccc(CNc2nc(OCc3ccccn3)ncc2C(=O)c2cc(OC)c(OC)c(OC)c2)cc1NC(C)=O
83 to 86 °C	CN1CCC(c2nc(-c3ccccc3)c3ccccc3n2)CC1
118 to 122 °C	COC(=O)Nc1nc(OC)nc(OC)n1
263 to 265 °C	CCC(=O)C(O)=NNc1cc([N+](=O)[O-])ccc1Br
139 to 140 °C	CCOP(=O)(OCC)c1ccc(NC(=O)CCc2oc(-c3ccccc3)nc2-c2ccc(Cl)cc2)cc1
144 to 147 °C	OC(Cn1cncn1)(c1ccc(F)cc1F)C(c1ccc(OCc2ccccc2)cc1)n1cncn1 (centres undefined)
206 to 208 °C	CC(=O)c1nc(N)nc(N)c1-c1ccc(Cl)cc1
38 to 39 °C	CCCCCCC(CCC)OC1(C(C)=O)C=CC=CC1 (centres undefined)
92 to 94 °C	CCCc1c(Cl)nc(NC=O)nc1Cl
103 to 104 °C	CC1(C)CCC(Cc2ccc(Cl)cc2)C1(O)CO (centres undefined)
111 to 112 °C	O=C1C(Cl)=C(c2ccccc2)C(=O)c2ccccc21
125 to 127 °C	C=CCOC(=O)Cc1cccc(NC(=O)NCNC(=O)c2ccccc2C(=O)c2ccccc2)c1
140 °C	O=C(Nc1cccc(Oc2ccc(Cl)cc2)c1)c1ccn2c1CSC2c1cccnc1 (centres undefined)
195 to 198 °C	O=S1(=O)NCN(C2CC2)c2cc(Br)cc(F)c21
210 to 211 °C	C[C@@H](O)CNC1=NS(=O)(=O)c2sc(Cl)cc2N1
188 to 192 °C	O=c1ccc2cnc(Nc3ccccc3)nc2n1C1CCCC1
128 to 130 °C	Clc1ccc2nc(CN3CCN(c4ccccc4)CC3)cn2c1
154 to 155 °C	O=S(=O)(c1ccccc1)c1ccc(Cl)cn1

melting point	Compound
236 to 238 °C	c1cc(Nc2csc3cnccc23)ccn1
58 to 60 °C	CCOC(=O)C(Cc1ccc(OC)cc1)(C(=O)OCC)c1cc2cc(Br)ccc2s1
80 °C	CCCCCc1ccc([C@H]2CC[C@H](c3ccc(C#N)cc3)CC2)cc1
88 to 90 °C	OCCCCOc1cccc(/C=C/c2nc3ccccc3s2)c1
205 to 207 °C	COc1cc2c(cc1-c1ncco1)-c1c(-c3cncs3)c3c(n1CC2)C(=O)N(C(C)(C)C)CCCC3
223 to 225 °C	COc1ccc(C(=O)Nc2ccccc2)cc1NS(=O)(=O)c1ccc2ccccc2c1
180 to 181 °C	CCCN1CC(c2ccc(F)cc2)=C(c2ccc(S(N)(=O)=O)cc2)C1=O
220 °C	CC(C)(C)S(=O)(=O)NC(=O)c1cccc([N+](=O)[O-])c1
138 to 140 °C	COC(=O)C(CO)N(Cc1ccccc1N)S(=O)(=O)c1ccc(OC)cc1 (centres undefined)
222 to 223 °C	CCOC(=O)Cc1c(-c2ccccc2)c2cc3c(cc2oc1=O)C(=O)OC3
164 to 165 °C	CN(C)N=Cc1cn(C)nc1-c1ccc([N+](=O)[O-])o1
164 to 166 °C	COc1ccc(COc2ccc(C(=O)N3CCc4cc(/C=C/CN(C)C)ccc43)cc2)cc1
100 to 103 °C	CC(C)(C)OC(=O)Nc1ccc(-c2ccccc2F)cc1N
165 °C	O=C1N(c2cc(Cl)nc(Cl)c2)C(=O)C2(Cc3ccc(O)cc3)CCCN12 (centres undefined)
200 to 203 °C	O=C(Nc1ccc(Cl)cn1)c1cc(Cl)ccc1NCC1CCN(C2CCSCC2)CC1
97 °C	CS(=O)(=O)N1CCC(C=O)CC1
286 °C	CN1CCN(c2cc3c(cc2Cl)c(=O)c(C(=O)O)cn3C)CC1
180 to 181 °C	CS(=O)(=O)c1ccc(-c2cnn(-c3ccc(F)c(Cl)c3)c(=O)c2C2CCCCC2)cc1
204 to 205 °C	COc1cc(C(=O)O)ccc1Cc1c(Cl)n(C)c2ccc(CC3CCN(C)C3=O)cc12 (centres undefined)
175 °C	COc1ccc(CN2CCC(C(=O)NO)(S(=O)(=O)c3ccc(OC)cc3)CC2)cc1
67.8 °C	CC(Cn1cc[nH]c1=NC#N)c1ccc(OC(F)F)c(OC2CCOC2)c1 (centres undefined)
142 to 143 °C	COCCCc1cc(N(C)Cc2sc(-c3ccc(C(F)(F)F)cc3)nc2C)ccc1OCC(=O)O
74 to 75 °C	COC(=O)Cc1cn(-c2ccccc2)nc1OCc1ccccc1

Compound	melting point
Cc1ccc(Cl)cc1-n1c(CF)nc2ccc([N+](=O)[O-])cc2c1=O	191 to 192 °C
CC(C)C[C@H](NC(=O)OCc1ccccc1)C(=O)N[C@@H](Cc1ccccc1)C(=O)CSCCCl	77 to 80 °C
CC1CCC2(C)C(=CCC3C4CC(C)C(=O)C4(C)CCC32)C1 (centres undefined)	109 to 110 °C
O=[N+]([O-])c1ccc(CF)cc1[N+](=O)[O-]	37.5 to 38.5 °C
